# Reference: ChEMBL document CHEMBL4130471, “Design and synthesis of tranylcypromine derivatives as novel LSD1/HDACs dual inhibitors for cancer treatment” (Eur J Med Chem, 2017)
# How the values were obtained:
# [1] = test system: MCF7; assay: cells; assay type: functional, cell-based; settings: Homo sapiens, MCF7, 72 h
# Description: Antiproliferative activity against human MCF7 cells incubated for 72 hrs by MTT assay
# [2] = test system: MGC-803; assay: cells; assay type: functional, cell-based; settings: Homo sapiens, MGC-803, 72 h
# Description: Antiproliferative activity against human MGC803 cells incubated for 72 hrs by MTT assay
# [3] = molecular target: T1, Amine oxidase [flavin-containing] A (Homo sapiens, UniProt P21397)
# T1 sequence (P21397 whole entry): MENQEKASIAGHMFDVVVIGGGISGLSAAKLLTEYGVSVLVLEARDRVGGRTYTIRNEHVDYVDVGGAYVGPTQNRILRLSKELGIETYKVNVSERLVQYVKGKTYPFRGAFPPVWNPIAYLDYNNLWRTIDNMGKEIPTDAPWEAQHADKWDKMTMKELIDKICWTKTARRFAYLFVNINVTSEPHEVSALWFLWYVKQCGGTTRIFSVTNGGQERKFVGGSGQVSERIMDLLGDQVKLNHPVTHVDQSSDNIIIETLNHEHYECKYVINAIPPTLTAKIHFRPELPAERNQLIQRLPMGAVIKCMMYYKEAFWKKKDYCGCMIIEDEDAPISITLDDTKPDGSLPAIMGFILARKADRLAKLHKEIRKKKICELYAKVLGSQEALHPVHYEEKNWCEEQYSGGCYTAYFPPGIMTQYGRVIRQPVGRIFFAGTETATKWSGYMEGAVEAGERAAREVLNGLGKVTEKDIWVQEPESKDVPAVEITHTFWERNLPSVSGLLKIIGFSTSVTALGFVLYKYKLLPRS
# Description: Inhibition of MAOA (unknown origin) using beetle luciferin as substrate by MAO-Glo assay
# [4] = test system: A549; assay: cells; assay type: functional, cell-based; settings: Homo sapiens, A549, 72 h
# Description: Antiproliferative activity against human A549 cells incubated for 72 hrs by MTT assay
# [5] = molecular target: Histone deacetylase 5 (Homo sapiens, UniProt Q9UQL6); assay: Inhibition of C-terminal His-tagged human HDAC5 (656-1122 residues) expressed in baculovirus expression system using Ac-peptide substrate incubated for 15 mins by fluorescence based assay
# Histone deacetylase 5, sequence (Q9UQL6 whole entry, the tested form may be a part): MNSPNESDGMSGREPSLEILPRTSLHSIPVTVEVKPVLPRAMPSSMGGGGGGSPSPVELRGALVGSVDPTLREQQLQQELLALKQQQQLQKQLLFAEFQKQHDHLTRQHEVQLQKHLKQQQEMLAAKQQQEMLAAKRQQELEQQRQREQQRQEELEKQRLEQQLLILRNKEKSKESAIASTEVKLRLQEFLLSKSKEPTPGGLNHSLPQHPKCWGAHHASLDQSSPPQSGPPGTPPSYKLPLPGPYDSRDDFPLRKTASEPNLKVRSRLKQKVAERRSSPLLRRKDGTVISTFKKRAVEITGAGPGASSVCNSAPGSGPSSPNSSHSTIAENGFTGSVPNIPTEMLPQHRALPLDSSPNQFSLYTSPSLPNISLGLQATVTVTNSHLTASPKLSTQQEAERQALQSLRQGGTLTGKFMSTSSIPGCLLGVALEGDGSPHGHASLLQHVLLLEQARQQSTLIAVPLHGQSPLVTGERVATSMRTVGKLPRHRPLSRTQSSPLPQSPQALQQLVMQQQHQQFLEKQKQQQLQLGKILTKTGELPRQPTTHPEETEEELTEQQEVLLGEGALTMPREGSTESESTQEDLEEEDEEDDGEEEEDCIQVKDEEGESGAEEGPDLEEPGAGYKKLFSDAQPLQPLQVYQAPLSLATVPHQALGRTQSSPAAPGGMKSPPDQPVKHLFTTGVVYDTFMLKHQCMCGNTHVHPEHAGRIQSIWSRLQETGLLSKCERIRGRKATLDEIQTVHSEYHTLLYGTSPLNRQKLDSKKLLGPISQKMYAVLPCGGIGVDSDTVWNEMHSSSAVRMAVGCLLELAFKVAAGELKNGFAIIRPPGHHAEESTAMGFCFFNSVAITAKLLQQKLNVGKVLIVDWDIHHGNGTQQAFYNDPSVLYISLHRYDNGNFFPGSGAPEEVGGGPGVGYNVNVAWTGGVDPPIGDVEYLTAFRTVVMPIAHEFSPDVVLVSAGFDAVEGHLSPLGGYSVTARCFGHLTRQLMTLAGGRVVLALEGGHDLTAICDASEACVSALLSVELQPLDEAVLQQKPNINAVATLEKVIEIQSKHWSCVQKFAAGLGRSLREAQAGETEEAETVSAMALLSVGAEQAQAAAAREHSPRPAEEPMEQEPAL
# [6] = molecular target: Lysine-specific histone demethylase 1A (Homo sapiens, UniProt O60341)
# Description: Inhibition of recombinant LSD1 (157 to 852 amino acids) (unknown origin) expressed in Escherichia coli BL21(DE) using H3K4me2 substrate by amplex red and horseradish peroxidase based fluorescence assay
# [7] = molecular target: Histone deacetylase 1 (Homo sapiens, UniProt Q13547); assay: Inhibition of C-terminal His-tagged and C-terminal FLAG-tagged human HDAC1 expressed in baculovirus expression system using Ac-peptide substrate incubated for 15 mins by fluorescence based assay
# Histone deacetylase 1, sequence (Q13547 whole entry): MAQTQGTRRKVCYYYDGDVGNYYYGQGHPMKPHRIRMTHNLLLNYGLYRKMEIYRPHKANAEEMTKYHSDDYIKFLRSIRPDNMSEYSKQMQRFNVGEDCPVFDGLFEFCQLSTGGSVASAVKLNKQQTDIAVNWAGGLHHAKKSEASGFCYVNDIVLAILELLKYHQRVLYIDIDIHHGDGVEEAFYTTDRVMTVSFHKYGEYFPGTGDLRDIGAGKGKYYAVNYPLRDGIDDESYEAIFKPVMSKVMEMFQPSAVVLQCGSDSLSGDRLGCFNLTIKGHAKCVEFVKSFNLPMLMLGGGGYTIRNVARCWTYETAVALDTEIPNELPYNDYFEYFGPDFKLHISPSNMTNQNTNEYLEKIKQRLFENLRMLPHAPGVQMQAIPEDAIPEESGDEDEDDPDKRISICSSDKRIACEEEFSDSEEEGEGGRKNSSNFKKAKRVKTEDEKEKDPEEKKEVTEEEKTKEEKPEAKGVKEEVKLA
# [8] = molecular target: Histone deacetylase 2 (Homo sapiens, UniProt Q92769)
# Histone deacetylase 2, sequence (Q92769 whole entry): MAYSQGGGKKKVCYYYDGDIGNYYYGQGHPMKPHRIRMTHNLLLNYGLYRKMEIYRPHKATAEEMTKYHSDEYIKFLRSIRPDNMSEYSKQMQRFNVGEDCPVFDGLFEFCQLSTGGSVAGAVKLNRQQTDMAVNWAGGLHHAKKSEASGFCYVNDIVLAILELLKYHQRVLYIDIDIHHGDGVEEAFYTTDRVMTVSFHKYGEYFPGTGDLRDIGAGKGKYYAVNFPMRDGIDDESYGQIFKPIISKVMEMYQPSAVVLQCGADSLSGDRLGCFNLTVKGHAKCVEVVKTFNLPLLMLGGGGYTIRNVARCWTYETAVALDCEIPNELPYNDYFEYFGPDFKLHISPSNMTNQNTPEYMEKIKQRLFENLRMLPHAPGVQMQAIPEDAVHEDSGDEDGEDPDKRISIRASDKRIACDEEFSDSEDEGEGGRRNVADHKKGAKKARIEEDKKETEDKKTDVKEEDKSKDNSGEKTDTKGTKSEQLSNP
# Description: Inhibition of C-terminal His-tagged full length human HDAC2 expressed in baculovirus expression system using Ac-peptide substrate incubated for 15 mins by fluorescence based assay
# [9] = test system: SW-620; assay: cells; assay type: functional, cell-based; settings: Homo sapiens, SW-620, 72 h
# Description: Antiproliferative activity against human SW620 cells incubated for 72 hrs by MTT assay
# [10] = test system: PC-3; assay: cells; assay type: functional, cell-based; settings: Homo sapiens, PC-3, 72 h
# Description: Antiproliferative activity against human PC3 cells incubated for 72 hrs by MTT assay
# [11] = molecular target: T2, Amine oxidase [flavin-containing] B (Homo sapiens, UniProt P27338)
# T2 sequence (P27338 whole entry): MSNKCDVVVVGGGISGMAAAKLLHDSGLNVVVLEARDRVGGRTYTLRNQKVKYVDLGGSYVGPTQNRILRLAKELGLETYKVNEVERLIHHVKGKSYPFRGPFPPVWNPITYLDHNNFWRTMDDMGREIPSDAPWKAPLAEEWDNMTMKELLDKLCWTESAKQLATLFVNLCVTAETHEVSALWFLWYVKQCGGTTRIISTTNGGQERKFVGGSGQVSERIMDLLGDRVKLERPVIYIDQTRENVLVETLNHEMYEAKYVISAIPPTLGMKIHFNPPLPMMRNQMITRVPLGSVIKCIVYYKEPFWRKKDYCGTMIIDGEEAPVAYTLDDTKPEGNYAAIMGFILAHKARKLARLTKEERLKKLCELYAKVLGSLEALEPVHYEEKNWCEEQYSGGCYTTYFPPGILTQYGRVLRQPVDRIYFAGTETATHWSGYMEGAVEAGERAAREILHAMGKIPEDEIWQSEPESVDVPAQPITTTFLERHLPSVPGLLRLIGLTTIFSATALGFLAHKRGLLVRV
# Description: Inhibition of MAOB (unknown origin) using beetle luciferin as substrate by MAO-Glo assay
IC50 [1] [µM],IC50 [2] [µM],IC50 [3] [µM],IC50 [4] [µM],IC50 [5],IC50 [6] [µM],IC50 [7] [µM],IC50 [8] [µM],IC50 [9] [µM],IC50 [10] [µM],IC50 [11] [µM],IC50 ([5]; read-out: IC50) [µM],Compound
19.5,21.5,50.1,5.36,Not Active,7.16,0.218,0.413,> 32,21.7,> 100,,Nc1ccccc1NC(=O)c1ccc(CNC2CC2c2ccccc2)cc1 (stereo not drawn)
22.1,13.6,36.9,3.17,Not Active,3.85,0.314,0.491,26.9,11.6,> 100,,Nc1ccccc1NC(=O)/C=C/c1ccc(CNC2CC2c2ccccc2)cc1 (stereo not drawn)
6.24,2.46,39.4,1.41,,2.21,0.012,0.025,4.03,5.62,> 100,2.97,O=C(/C=C/c1ccc(CNC2CC2c2ccccc2)cc1)NO (stereo not drawn)
